Test results: patent US10471024B2, “Increased effectiveness of allylamine drug compounds for topical treatment of fungal infections of the skin and skin appendages” (BIOPHILE CORPORATION, LTD., priority 2007, dated 2019)
Where a name gives a salt, the structure may show the parent alone.

Legend:
[1] = theoretical fraction of positively charged terbinafine from pKa; assay type: physicochemical
Description: The positive charge can be determined by examining the pKa of the active ingredient. […] At pH<pKa, the positively charged terbinafine is more than 50%. When pH>pKa the positively charged terbinafine is less than 50%.

[2] = 0.5% in methanol/water (4:6), 25 degrees Celsius; cited from earlier work
[3] = zeta potential of terbinafine hydrochloride solution; assay type: physicochemical; settings: 0.02 g/ml solution
Description: Prototype measurements of zeta potential of the 0.02 g/ml terbinafine hydrochloride solution and the result is positive at pH of below 5.11. However, there are other anions in the solution, e.g., chloride ion and hydroxide ion (sodium hydroxide was used to adjust the solution pH) that make negative values of zeta potential. [table]

SMILES | positively charged terbinafine ([1]; pH 5.10) | positively charged terbinafine molecules ([1]; pH 7.10) [%] | positively charged terbinafine ([1]; pH 9.10) | pH of a solution [2] | Zeta Potential ([3]; pH 3.68) | Zeta Potential ([3]; pH 5.11) | Zeta Potential ([3]; pH 7.07 (adjusted with sodium hydroxide)) [mV] | Zeta Potential ([3]; pH 8.73 (adjusted with sodium hydroxide)) [mV]
CN(C/C=C/C#CC(C)(C)C)Cc1cccc2ccccc12 [Terbinafine] | about 99% | 50 | about 1% |  |  |  |  | 
CN(C/C=C/C#CC(C)(C)C)Cc1cccc2ccccc12 [Terbinafine hydrochloride] |  |  |  | approximately 4.7 | +12.1 mV | +31.2 mV | −34.0 | −58.8
